Measurements: patent US11485734B2, “Beta-carbolines as positive allosteric modulators of the human serotonin receptor 2C (5-HT2C)” (Northwestern University, priority 2018, dated 2022)
“Also recorded” adds a separate entry of the source.

Legend:
5-HT2a receptor = 5-HT2a receptor (Homo sapiens, UniProt P28223); assay: 2A agonist activity of selected compounds; type: cell-based
[1] = target: T1, human serotonin receptor 2C (5-HT2c) (Homo sapiens, UniProt P28335); assay: 2C agonist activity of selected compounds; type: cell-based
T1 sequence (P28335 33-458): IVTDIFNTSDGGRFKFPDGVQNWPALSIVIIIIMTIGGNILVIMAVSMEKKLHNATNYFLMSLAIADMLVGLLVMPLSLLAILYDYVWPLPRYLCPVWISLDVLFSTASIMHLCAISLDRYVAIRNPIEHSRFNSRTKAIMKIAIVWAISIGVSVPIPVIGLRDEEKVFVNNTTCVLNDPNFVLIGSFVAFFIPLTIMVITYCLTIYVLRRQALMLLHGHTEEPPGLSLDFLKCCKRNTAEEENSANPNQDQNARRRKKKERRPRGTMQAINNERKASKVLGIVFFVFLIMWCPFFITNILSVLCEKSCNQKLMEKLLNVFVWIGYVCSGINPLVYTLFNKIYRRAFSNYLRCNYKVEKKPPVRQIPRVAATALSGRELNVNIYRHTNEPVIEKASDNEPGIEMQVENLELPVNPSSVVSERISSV

mice [2] = assay: Nestlet Shredding (NS) in PCP-treated mice; type: in vivo; conditions: AJC-61 2 mg/kg; PCP 10 mg/kg i.p. 7 days b.i.d.; 30-minute NS; listed as AJC-16
Procedure: FIG. 7. Nestlet Shredding (NS): Effect of Vehicle, PCP (10 mg/kg; i.p., 7 days; b.i.d.), and PCP+AJC-61 (2 mg/kg) in a 30-minute Nestlet Shredding (NS) paradigm.
(§1) Marble Burying (MB) and extent of shredding a standard type of rodent bedding (i.e., Nestlet Shredding) are both proven methods for assessing drug efficacy to treat obsessive-compulsive disorder and Tourette's syndrome. As such, we tested the effect on AJC-61 on Marble Burying and Nestlet Shredding.

mice [3] = assay: PCP-induced increase in locomotor activity (LMA); type: in vivo; conditions: AJC-61 2 mg/kg, PCP 10 mg/kg, eight 15 minute intervals
Procedure: FIG. 2. […] The effect of AJC-61 (2 mg/kg) on PCP-induced (10 mg/kg) increase in locomotor activity in mice.
(§2) The ability of a test drug to block the increase in Locomotor Activity (LMA) produced by amphetamine or the glutamate receptor […], phencyclidine (PCP), has a high predictive value for the antipsychotic efficacy of the test drug for treating schizophrenia. […] As such, we tested the effect of AJC-61 on reducing LMA in mice that had been treated with amphetamine or PCP to increase LMA activity.

[4] = target: T1, human serotonin receptor 2C (5-HT2c); assay: 2C antagonist activity of selected compounds; type: cell-based
mice [5] = assay: Marble Burying Task (MBT) in PCP-treated mice; type: in vivo; conditions: AJC-61 2 mg/kg; PCP 10 mg/kg i.p. 7 days b.i.d.; 30-minute MBT; listed as AJC-16
Procedure: FIG. 6. Marble Burying Task (MBT): Effect of Vehicle, PCP (10 mg/kg; i.p., 7 days; b.i.d.), and PCP+AJC-61 (2 mg/kg) in a 30-minute Marble Burying Task (MBT) paradigm.
as §1

mice [6] = assay: Amphetamine-induced increase in locomotor activity (LMA); type: in vivo; conditions: AJC-61 2 mg/kg, amphetamine 2.5 mg/kg, eight 15 minute intervals
Procedure: FIG. 1. […] The effect of AJC-61 (2 mg/kg) on amphetamine-induced (2.5 mg/kg) increase in locomotor activity in mice.
as §2

male C57BL/6J mice = assay: Novel Object Recognition in PCP-treated mice; type: in vivo; conditions: AJC-61 2 mg/kg, PCP 10 mg/kg
Procedure: FIG. 3. Novel Object Recognition: Discrimination index (DI) for male C57BL/6J mice treated with Vehicle, PCP (10 mg/kg), and PCP+AJC-61 (2 mg/kg). Data are shown as mean±S.E.M. of exploration time (s) n=10 mice per group.
The Novel Object Recognition test in rodents is considered a valid model of spatial memory in man. […] Normal mice remember for ˜24 hours. The time to loss of the memory in aged mice can be as low as zero to less than 8 hours. As such, we tested the effect of AJC-61 on reducing the DI in mice that had been treated with PCP to reduce the DI.

mice [7] = assay: Porsolt Forced Swim Test (FST) in PCP-treated mice; type: in vivo; conditions: AJC-61 2 mg/kg, PCP 10 mg/kg i.p. 7 days b.i.d., 6-min FST
Procedure: FIG. 5. Porsolt Forced Swim Test (FST). Effect of Vehicle, PCP (10 mg/kg; i.p., 7 days; b.i.d.), and PCP+AJC-61 (2 mg/kg), in a 6-min Porsolt Forced Swim Test (FST).
The Porsolt Forced Swim Test (FST) is a gold standard test for antidepressant action. In the FST, normal mice become immobile after being required to swim in a tank and begin to float instead of struggling to get out of the water. […] As such, we tested whether AJC-61 could increase the swim time in a FST.

22-month old mice = assay: Novel Object Recognition in aged mice; type: in vivo; conditions: AJC-61 2 mg/kg
Procedure: FIG. 8. Novel Object Recognition: Effect on discrimination index (DI) of Vehicle and AJC-61 (2 mg/kg) on 2.5 month old mice and 22-month old mice Data are shown as mean±S.E.M. of exploration time (s): n=14 pairs of mice per group.
Aged mice show a decline in memory function beginning around 13-15 month of age. Drugs which enhance memory can be assessed using the Novel Object Recognition test and determination of the Discrimination Index (DI) as discussed above. As such, we tested whether AJC-61 could improve the DI for aged mice (i.e., 22-month old mice) versus young mice (i.e., 2.5 month old mice).

mice [8] = assay: Social Interaction in PCP-treated mice; type: in vivo; conditions: AJC-61 2 mg/kg; PCP 10 mg/kg i.p. 7 days b.i.d.; 10-minute paradigm
Procedure: FIG. 4. Social Interaction: Effect of Vehicle, PCP (10 mg/kg: i.p., 7 days: b.i.d.), and PCP+AJC-61 (2 mg/kg), on social behaviors (sniffling, following, and avoiding) and interaction with inanimate object (object exploration), in a 10-minute social interaction (SI) paradigm. Data were analyzed by one-way ANOVA comparing the effect of drug treatment on each behavior and are shown as mean±S.E.M. of time (s); n=10 pairs of mice per group.
A healthy mouse will vigorously explore a newly introduce mouse and retain the memory for that mouse for up to 24 hours. The loss of interest in exploring a novel mouse is considered a sign of negative symptoms.
PCP-treatment produces a deficit in social interaction which models negative symptoms in schizophrenia. These include lack of motivation, loss of interest in activities, diminished capacity for pleasure and spontaneous activity. We tested the effect of AJC-61 on Social Interaction in mice that had been treated with PCP, including a Social Behaviors that include sniffing, following, and avoiding and Object Exploration via interaction with an inanimate object.

5-HT2a receptor, sequence (P28223 whole entry): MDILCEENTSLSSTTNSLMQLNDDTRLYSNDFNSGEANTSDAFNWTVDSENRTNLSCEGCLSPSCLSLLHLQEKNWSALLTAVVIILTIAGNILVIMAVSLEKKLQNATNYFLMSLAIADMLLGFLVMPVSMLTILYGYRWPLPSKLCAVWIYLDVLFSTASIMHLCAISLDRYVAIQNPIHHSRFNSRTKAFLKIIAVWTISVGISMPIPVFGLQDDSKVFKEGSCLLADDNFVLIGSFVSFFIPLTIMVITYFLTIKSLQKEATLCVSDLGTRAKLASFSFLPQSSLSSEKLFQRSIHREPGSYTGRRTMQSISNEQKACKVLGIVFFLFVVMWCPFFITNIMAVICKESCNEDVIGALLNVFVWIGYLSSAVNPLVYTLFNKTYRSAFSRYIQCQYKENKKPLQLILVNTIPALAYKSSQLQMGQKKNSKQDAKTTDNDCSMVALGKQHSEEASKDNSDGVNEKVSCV

Fc1ccc2[nH]c3c(c2c1)CCNC3c1cncnc1 (stereo not drawn) [MJO-01-31]
EC50 (5-HT2a receptor): 54.6 nM
Emax (5-HT2a receptor): 95%
EC50 [1]: 10.1 nM
Emax [1]: 101%

Oc1ccc2[nH]c3c(-c4cncnc4)nccc3c2c1 [AJC-61, 1-(pyrimidin-5-yl)-9H-pyrido[3,4-b]indol-6-61]
Percent nestlet shredded, PCP+AJC-61 versus PCP (mice [2]): significant decrease in the percent nestlet shredded
Effect on PCP-induced increase in locomotor activity (mice [3]): blocked PCP-induced increase in locomotor activity; also recorded: blocked the PCP-induced increase in LAM
IC50 [4]: > 10000 nM
Number of marbles buried, PCP+AJC-61 versus PCP (mice [5]): significant decrease in the number of marbles buried
Effect on amphetamine-induced increase in locomotor activity (mice [6]): blocked amphetamine-induced increase in locomotor activity; also recorded: blocked the amphetamine-induced increase in LMA
2A agonist (5-HT2a receptor): inactive
Discrimination index (DI), PCP+AJC-61 versus PCP (male C57BL/6J mice): significant increase in DI
Immobility time, PCP+AJC-61 versus PCP (mice [7]): significantly decreased the immobility time
Immobility time, PCP+AJC-61 versus PCP (mice [7]; listed as AJC-16): Significant decrease in immobility time
Discrimination index (DI), AJC-61 versus Vehicle (22-month old mice): significant increase in the DI
2C agonist [1]: inactive
Object exploration (inanimate object) (mice [8]): no significant change
Social interaction: avoiding, PCP+AJC-61 versus PCP (mice [8]): significant decrease in avoiding
Social interaction: following (mice [8]): no significant change
Social interaction: sniffing, PCP+AJC-61 versus PCP (mice [8]): significant increase in sniffing

Oc1ccc2[nH]c3c(c2c1)CCNC3c1ccccc1O (stereo not drawn) [MJO-01-34]
EC50 (5-HT2a receptor): 106 nM
Emax (5-HT2a receptor): 27%
EC50 [1]: 85.9 nM
Emax [1]: 103%

Clc1ccc2[nH]c3c(c2c1)CCNC3CCc1ccccc1 (stereo not drawn) [MJO-01-46]
EC50 (5-HT2a receptor): 11.3 nM
Emax (2A agonist) (5-HT2a receptor): 96%
EC50 [1]: 5.37 nM
Emax (2C agonist) [1]: 98%
